{"source": "the NIST ThermoML archive (doi:10.1021/acs.jced.8b01220)", "conditions": "Crystal; DSC", "note": "± gives the expanded uncertainty stated by the source.", "data": [{"smiles": "CC(C)(N)CO", "note": "[2-amino-2-methylpropan-1-ol]", "values": [{"measurement": "Triple point temperature", "value": "295.75 ± 2", "unit": "K"}]}]}
